From patent US20040224958A1, “Pyridopyrimidinone derivatives for treatment of neurodegenerative disease” (priority 2000, published 2004)
Where two headings read alike, the source gives them in different places.

Experiments:
[1] = molecular target: cdk2/cyclinE (Homo sapiens, UniProt P24941); test: Cyclin-Dependent Kinase Assay cdk2/cyclinE
[2] = molecular target: cdc2/cyclinB (Homo sapiens, UniProt P06493); test: Cyclin-Dependent Kinase Assay cdc2/cyclinB
[3] = molecular target: cdk4/D (Homo sapiens, UniProt P11802); test: Cyclin-Dependent Kinase 4 (cdk4) Assay; type: biochemical; conditions: read-out: cdk4/D IC50
[4] = molecular target: Cdk5/p25 (Homo sapiens, UniProt Q00535); test: Cyclin-Dependent Kinase 5 High Throughput Screening (cdk5-HTS) Assay; type: biochemical; conditions: high throughput screen
Method in brief: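 Cdk5/p25 (1.0 μg/mL) phosphorylates GST-RbCOOH (20 μg/mL) in 50 mM Tris pH 7.4 with 10 mM MgCl2 and 20 μM ATP spiked with [γ33P]ATP, 30 min at room temperature. After EDTA stop, substrate captured on glutathione-coated plates; 33P incorporation counted by scintillation; IC50 determined.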

[5] = molecular target: cdk2/cyclinA (Homo sapiens, UniProt P24941); test: Cyclin-Dependent Kinase Assay cdk2/cyclinA

Chain of cdc2/cyclinB (P06493 whole entry): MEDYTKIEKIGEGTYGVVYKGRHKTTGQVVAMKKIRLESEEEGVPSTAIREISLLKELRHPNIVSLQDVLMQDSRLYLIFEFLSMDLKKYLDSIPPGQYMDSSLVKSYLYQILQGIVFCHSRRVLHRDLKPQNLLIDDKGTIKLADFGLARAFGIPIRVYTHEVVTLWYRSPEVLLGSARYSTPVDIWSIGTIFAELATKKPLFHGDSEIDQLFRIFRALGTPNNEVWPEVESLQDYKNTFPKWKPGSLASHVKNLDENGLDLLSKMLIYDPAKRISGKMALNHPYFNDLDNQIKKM
Chain of cdc2/cyclinB (P14635 whole entry, further chain): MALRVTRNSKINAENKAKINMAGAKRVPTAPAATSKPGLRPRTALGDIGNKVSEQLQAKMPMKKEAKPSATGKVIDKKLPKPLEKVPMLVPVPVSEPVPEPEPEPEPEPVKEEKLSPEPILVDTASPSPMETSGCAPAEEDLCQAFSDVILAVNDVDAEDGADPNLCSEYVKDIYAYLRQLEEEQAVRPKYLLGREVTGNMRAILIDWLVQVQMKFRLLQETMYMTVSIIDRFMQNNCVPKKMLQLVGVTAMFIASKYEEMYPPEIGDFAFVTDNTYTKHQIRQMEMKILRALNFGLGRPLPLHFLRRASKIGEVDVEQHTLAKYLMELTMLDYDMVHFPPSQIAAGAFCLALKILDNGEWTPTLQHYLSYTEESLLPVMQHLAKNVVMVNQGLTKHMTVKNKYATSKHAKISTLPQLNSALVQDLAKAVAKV
Chain of cdk4/D (P11802 whole entry): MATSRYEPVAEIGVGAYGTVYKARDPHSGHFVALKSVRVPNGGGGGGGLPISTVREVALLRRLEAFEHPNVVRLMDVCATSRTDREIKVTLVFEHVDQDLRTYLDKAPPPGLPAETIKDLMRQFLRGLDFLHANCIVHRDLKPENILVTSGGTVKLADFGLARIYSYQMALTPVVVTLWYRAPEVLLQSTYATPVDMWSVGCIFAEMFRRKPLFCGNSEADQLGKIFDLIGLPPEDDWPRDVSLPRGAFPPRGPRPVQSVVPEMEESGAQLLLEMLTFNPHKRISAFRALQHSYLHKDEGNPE
Chain of cdk4/D (P24385 whole entry, further chain): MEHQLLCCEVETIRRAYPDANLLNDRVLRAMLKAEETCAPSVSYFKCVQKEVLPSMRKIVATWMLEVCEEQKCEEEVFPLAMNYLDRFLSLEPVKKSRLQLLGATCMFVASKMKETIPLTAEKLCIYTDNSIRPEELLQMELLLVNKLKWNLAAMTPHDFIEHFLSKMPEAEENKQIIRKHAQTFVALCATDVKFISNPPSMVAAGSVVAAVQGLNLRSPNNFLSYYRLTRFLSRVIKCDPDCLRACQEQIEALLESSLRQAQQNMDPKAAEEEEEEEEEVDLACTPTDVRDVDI

Compound | IC50 ([1]; cdk2/E IC50) | IC50 [2] | IC50 [3] | IC50 [4] | IC50 ([5]; cdk2/A IC50) | IC50 ([1]; read-out: cdk2/E IC50) | IC50 ([2]; read-out: cdk1/B IC50) | IC50 ([5]; read-out: cdk2/A IC50)
O=c1ccc2cnc(Nc3ccc4cn[nH]c4c3)nc2n1C1CCCC1 [Example 529, 8-Cyclopentyl-2-(1H-indazol-6-ylamino)-8H-pyrido[2,3-d]pyrimidin-7-one] | 0.024 µM | 0.0825 µM | 0.031 µM | 0.032 µM | 0.0355 µM | – | – | –
CCC(CC)n1c(=O)ccc2cnc(Nc3ccc(C)c(NC(C)=O)c3)nc21 [Example 522, N-{5-[8-(1-Ethyl-propyl)-7-oxo-7,8-dihydro-pyrido[2,3-d]pyrimidin-2-ylamino]-2-methyl-phenyl}-acetamide] | 0.32 µM | 1.1 µM | 0.36 µM | 0.3 µM | 1.6 µM | – | – | –
Cc1ccc(Nc2ncc3ccc(=O)n(C(C)C)c3n2)cc1C [Example 434, 2-(3,4-Dimethyl-phenylamino)-8-isopropyl-8H-pyrido[2,3-d]pyrimidin-7-one] | 0.52 µM | 0.47 µM | 0.35 µM | 0.054 µM | 0.4 µM | – | – | –
COc1ccc(Nc2ncc3ccc(=O)n(C4CCCCC4)c3n2)cc1OC [Example 613, 8-Cyclohexyl-2-(3,4-dimethoxy-phenylamino)-8H-pyrido[2,3-d]pyrimidin-7-one] | 0.0363 µM | 0.101 µM | 0.415 µM | 0.063 µM | 0.152 µM | – | – | –
CCC(C)n1c(=O)ccc2cnc(Nc3cc([N+](=O)[O-])ccc3F)nc21 (stereo not shown) [Example 459, 8-sec-Butyl-2-(2-fluoro-5-nitro-phenylamino)-8H-pyrido[2,3-d]pyrimidin-7-one] | 0.316 µM | 0.491 µM | 0.216 µM | 0.196 µM | 1.2 µM | – | – | –
CCCn1c(=O)ccc2cnc(Nc3ccc(Br)c(Cl)c3)nc21 [Example 341, 2-(4-Bromo-3-chloro-phenylamino)-8-propyl-8H-pyrido[2,3-d]pyrimidin-7-one] | 0.28 µM | 0.52 µM | 0.42 µM | 0.092 µM | 0.89 µM | – | – | –
2-(3-Hydroxy-4-methoxy-phenylamino)-8-propyl-8H-pyrido[2,3-d]pyrimidin-7-one [Example 296] | – | – | 0.54 µM | 0.12 µM | – | 0.24 µM | 0.44 µM | 0.96 µM
O=c1ccc2cnc(Nc3ccc4[nH]ncc4c3)nc2n1C1CCCC1 [Example 536, 8-Cyclopentyl-2-(1H-indazol-5-ylamino)-8H-pyrido[2,3-d]pyrimidin-7-one] | 0.014 µM | 0.0185 µM | 0.025 µM | 0.0197 µM | 0.0315 µM | – | – | –
CC(C)n1c(=O)ccc2cnc(Nc3ccc(F)c(F)c3)nc21 [Example 426, 2-(3,4-Difluoro-phenylamino)-8-isopropyl-8H-pyrido[2,3-d]pyrimidin-7-one] | 0.13 µM | 0.31 µM | 0.058 µM | 0.021 µM | 0.21 µM | – | – | –
O=c1ccc2cnc(Nc3cc([N+](=O)[O-])ccc3F)nc2n1CC1CC1 [Example 572, 8-Cyclopropylmethyl-2-(2-fluoro-5-nitro-phenylamino)-8H-pyrido[2,3-d]pyrimidin-7-one] | 0.084 µM | 0.43 µM | 0.12 µM | 0.19 µM | 0.53 µM | – | – | –
CCC(CC)n1c(=O)ccc2cnc(Nc3ccc4c(c3)NC(=O)CS4)nc21 [Example 520, 8-(1-Ethyl-propyl)-2-(3-oxo-3,4-dihydro-2H-1,4-benzothiazin-6ylamino)-8H-pyrido[2,3-d]pyrimidin-7-one] | 0.041 µM | 0.051 µM | 0.12 µM | 0.0098 µM | 0.086 µM | – | – | –
CC(=O)Nc1ccc(Nc2ncc3ccc(=O)n(C(C)C)c3n2)cc1 [Example 414, N-[4-(8-Isopropyl-7-oxo-7,8-dihydro-pyrido[2,3-d]pyrimidin-2-ylamino)-phenyl]-acetamide] | 0.091 µM | 0.165 µM | 0.051 µM | 0.0385 µM | 0.155 µM | – | – | –
CC(C)n1c(=O)ccc2cnc(Nc3ccc4[nH]ccc4c3)nc21 [Example 409, 2-(1H-Indol-5-ylamino)-8-isopropyl-8H-pyrido[2,3-d]pyrimidin-7-one] | 0.0993 µM | 0.26 µM | 0.044 µM | 0.054 µM | 0.26 µM | – | – | –
CCC(CC)n1c(=O)ccc2cnc(Nc3cc(C)c(O)c(C)c3)nc21 [Example 523, 8-(1-Ethyl-propyl)-2-(4-hydroxy-3,5-dimethyl-phenylamino)-8H-pyrido[2,3-d]pyrimidin-7-one] | 0.046 µM | 0.093 µM | 0.39 µM | 0.028 µM | 0.16 µM | – | – | –
Cn1c(=O)ccc2cnc(Nc3ccc4[nH]ccc4c3)nc21 [Example 614, 2-(1H-Indol-5-ylamino)-8-methyl-8H-pyrido[2,3-d]pyrimidin-7-one] | 0.917 µM | 1.43 µM | 1.35 µM | 0.615 µM | 2 µM | – | – | –
CCC(CC)n1c(=O)ccc2cnc(Nc3cccc(O)c3)nc21 [Example 512, 8-(1-Ethyl-propyl)-2-(3-hydroxy-phenylamino)-8H-pyrido[2,3-d]pyrimidin-7-one] | 0.056 µM | 0.039 µM | 2.2 µM | 0.083 µM | 0.12 µM | – | – | –
CCCCn1c(=O)ccc2cnc(Nc3ccc(F)c(C(F)(F)F)c3)nc21 [Example 390, 8-Butyl-2-(4-fluoro-3-trifluoromethyl-phenylamino)-8H-pyrido[2,3-d]pyrimidin-7-one] | 0.085 µM | 0.22 µM | 1.1 µM | 0.084 µM | 0.47 µM | – | – | –
CCC(CC)n1c(=O)ccc2cnc(Nc3ccc(C)c(NS(C)(=O)=O)c3)nc21 [Example 519, N-{5-[8-(1-Ethyl-propyl)-7-oxo-7,8-dihydro-pyrido[2,3-d]pyrimidin-2-ylamino]-2-methyl-phenyl}-methanesulfonamide] | 0.14 µM | 0.047 µM | 0.15 µM | 0.033 µM | 0.31 µM | – | – | –
CCC(C)n1c(=O)ccc2cnc(Nc3ccc(F)c(Cl)c3)nc21 (stereo not shown) [Example 460, 8-sec-Butyl-2-(3-chloro-4-fluoro-phenylamino)-8H-pyrido[2,3-d]pyrimidin-7-one] | 0.073 µM | 0.14 µM | 0.16 µM | 0.036 µM | 0.26 µM | – | – | –
[4-(7-Oxo-8-propyl-7,8-dihydro-pyrido[2,3-d]pyrimidin-2-ylamino)-phenyl]-carbamic acid tert-butyl ester [Example 326] | – | – | 2.1 µM | 0.46 µM | – | 0.82 µM | 0.995 µM | 2.45 µM
2-(4-Bromo-3-trifluoromethyl-phenylamino)-8-cyclopentyl-8H-pyrido[2,3-d]pyrimidin-7-one [Example 561] | – | – | 0.48 µM | 0.44 µM | – | 0.15 µM | 0.35 µM | 0.22 µM
CC(C)n1c(=O)ccc2cnc(Nc3ccc(O)c(Cl)c3)nc21 [Example 413, 2-(3-Chloro-4-hydroxy-phenylamino)-8-isopropyl-8H-pyrido[2,3-d]pyrimidin-7-one] | 0.0523 µM | 0.068 µM | 0.18 µM | 0.0435 µM | 0.139 µM | – | – | –
CCCn1c(=O)ccc2cnc(Nc3ccc(C#N)cc3)nc21 [Example 322, 4-(7-Oxo-8-propyl-7,8-dihydro-pyrido[2,3-d]pyrimidin-2-ylamino)-benzonitrile] | 0.3 µM | 0.597 µM | 0.637 µM | 0.228 µM | 0.554 µM | – | – | –
CCCn1c(=O)ccc2cnc(Nc3ccc4[nH]nnc4c3)nc21 [Example 325, 2-(1H-Benzotriazol-5-ylamino)-8-propyl-8H-pyrido[2,3-d]pyrimidin-7-one] | 0.0387 µM | 1.44 µM | 0.165 µM | 0.0395 µM | 0.126 µM | – | – | –
Cc1cc(Nc2ncc3ccc(=O)n(CC4CC4)c3n2)cc(C)c1O [Example 586, 8-Cyclopropylmethyl-2-(4-hydroxy-3,5-dimethyl-phenylamino)-8H-pyrido[2,3-d]pyrimidin-7-one] | 0.2 µM | 0.12 µM | 0.49 µM | 0.17 µM | 0.17 µM | – | – | –
CCn1c(=O)ccc2cnc(Nc3ccc(S(N)(=O)=O)cc3)nc21 [Example 295, 4-(8-Ethyl-7-oxo-7,8-dihydro-pyrido[2,3-d]pyrimidin-2-ylamino)-benzenesulfonamide] | 0.058 µM | 0.39 µM | 0.95 µM | 0.064 µM | 0.13 µM | – | – | –
CCC(CC)n1c(=O)ccc2cnc(Nc3ccc(OC)c(OC)c3)nc21 [Example 499, 2-(3,4-Dimethoxy-phenylamino)-8-(1-ethyl-propyl)-8H-pyrido[2,3-d]pyrimidin-7-one] | 0.0463 µM | 0.046 µM | 0.192 µM | 0.0125 µM | 0.115 µM | – | – | –
O=c1ccc2cnc(Nc3ccc(Cl)c(Cl)c3)nc2n1C1CCCC1 [Example 532, 8-Cyclopentyl-2-(3,4-dichloro-phenylamino)-8H-pyrido[2,3-d]pyrimidin-7-one] | 0.63 µM | 0.51 µM | 1.5 µM | 0.21 µM | 0.78 µM | – | – | –
CCn1c(=O)ccc2cnc(Nc3ccc(O)c(Cl)c3)nc21 [Example 290, 2-(3-Chloro-4-hydroxy-phenylamino)-8-ethyl-8H1-pyrido[2,3-d]pyrimidin-7-one] | 0.183 µM | 0.165 µM | 1.69 µM | 0.244 µM | 0.43 µM | – | – | –
